Results: ChEMBL document CHEMBL3885861, “Open TG-GATES”

Organism: Rattus norvegicus
Assay: Open TG-GATES - Regimen: Single
Format: toxicity, organism-based, Sprague-Dawley
Set-up: regimen Single, gender Male, age 6 weeks
Conditions: in vivo, po, route gavage; for TC / TP / gamma-GTP / ALP / ALT / AST / BUN / CRE / DBIL / GLC / IP / K / LDH / RALB / TBIL / PL: tissue Plasma; for APTT / Bas / Eos / Fbg / Ht / Lym / MCHC / MCV / Mono / PT / Plat / RBC / Ret / WBC: tissue Blood; for KIDNEY_L / KIDNEY_R / KIDNEY_TOTAL: tissue Kidney; for LIVER: tissue Liver
[1] = 0 mg/kg, 24 h, dose level Control

CN(C)CCCN1c2ccccc2CCc2ccccc21 [IMIPRAMINE]
TC [1]: 76 mg/dL | TP [1]: 5.6 g/dL | gamma-GTP [1]: 1 IU/L | TERMINAL_BW (10 mg/kg, 3 h, dose level Low): 203.3 g | APTT (10 mg/kg, 3 h, dose level Low): 16.8 s | Bas (10 mg/kg, 3 h, dose level Low): 0% | Eos (10 mg/kg, 3 h, dose level Low): 1.2% | Fbg (10 mg/kg, 3 h, dose level Low): 264.4 mg/dL | Ht (10 mg/kg, 3 h, dose level Low): 42.9% | Lym (10 mg/kg, 3 h, dose level Low): 78.6% | MCHC (10 mg/kg, 3 h, dose level Low): 31.9% | MCV (10 mg/kg, 3 h, dose level Low): 66.6 fL | Mono (10 mg/kg, 3 h, dose level Low): 2.8% | PT (10 mg/kg, 3 h, dose level Low): 16 s | Plat (10 mg/kg, 3 h, dose level Low): 108.8 x10_4/uL | RBC (10 mg/kg, 3 h, dose level Low): 644 x10_4/ul | Ret (10 mg/kg, 3 h, dose level Low): 8.6% | WBC (10 mg/kg, 3 h, dose level Low): 74.5 x10_2/uL | KIDNEY_L (10 mg/kg, 3 h, dose level Low): 0.9 g | KIDNEY_R (10 mg/kg, 3 h, dose level Low): 0.9 g | KIDNEY_TOTAL (10 mg/kg, 3 h, dose level Low): 1.8 g | LIVER (10 mg/kg, 3 h, dose level Low): 9.1 g | ALP (10 mg/kg, 3 h, dose level Low): 1700 IU/L | ALT (10 mg/kg, 3 h, dose level Low): 46.6 IU/L | AST (10 mg/kg, 3 h, dose level Low): 76.8 IU/L | BUN (10 mg/kg, 3 h, dose level Low): 8.6 mg/dL | CRE (10 mg/kg, 3 h, dose level Low): 0.1 mg/dL | DBIL (10 mg/kg, 3 h, dose level Low): 0.01 mg/dL | GLC (10 mg/kg, 3 h, dose level Low): 187.4 mg/dL | IP (10 mg/kg, 3 h, dose level Low): 10 mg/dL | K (10 mg/kg, 3 h, dose level Low): 4.3 meq/L | LDH (10 mg/kg, 3 h, dose level Low): 73 IU/L | RALB (10 mg/kg, 3 h, dose level Low): 2.6 g/dL | TBIL (10 mg/kg, 3 h, dose level Low): 0.066 mg/dL | TC (10 mg/kg, 3 h, dose level Low): 80.4 mg/dL | TP (10 mg/kg, 3 h, dose level Low): 5.5 g/dL | gamma-GTP (10 mg/kg, 3 h, dose level Low): 1.2 IU/L | TERMINAL_BW (10 mg/kg, 6 h, dose level Low): 199.7 g | APTT (10 mg/kg, 6 h, dose level Low): 16 s | Bas (10 mg/kg, 6 h, dose level Low): 0.2% | Eos (10 mg/kg, 6 h, dose level Low): 0.8% | Fbg (10 mg/kg, 6 h, dose level Low): 276.2 mg/dL | Ht (10 mg/kg, 6 h, dose level Low): 42.9% | Lym (10 mg/kg, 6 h, dose level Low): 75% | MCHC (10 mg/kg, 6 h, dose level Low): 32.3% | MCV (10 mg/kg, 6 h, dose level Low): 66.5 fL | Mono (10 mg/kg, 6 h, dose level Low): 2.2% | PT (10 mg/kg, 6 h, dose level Low): 15.8 s | Plat (10 mg/kg, 6 h, dose level Low): 108.4 x10_4/uL | RBC (10 mg/kg, 6 h, dose level Low): 645.6 x10_4/ul | Ret (10 mg/kg, 6 h, dose level Low): 8.3% | WBC (10 mg/kg, 6 h, dose level Low): 92.4 x10_2/uL | KIDNEY_L (10 mg/kg, 6 h, dose level Low): 0.9 g | KIDNEY_R (10 mg/kg, 6 h, dose level Low): 0.9 g | KIDNEY_TOTAL (10 mg/kg, 6 h, dose level Low): 1.9 g | ALP (10 mg/kg, 6 h, dose level Low): 1517 IU/L | ALT (10 mg/kg, 6 h, dose level Low): 54.4 IU/L | AST (10 mg/kg, 6 h, dose level Low): 79.4 IU/L | BUN (10 mg/kg, 6 h, dose level Low): 8.2 mg/dL | CRE (10 mg/kg, 6 h, dose level Low): 0.2 mg/dL | GLC (10 mg/kg, 6 h, dose level Low): 183 mg/dL | IP (10 mg/kg, 6 h, dose level Low): 9.6 mg/dL | K (10 mg/kg, 6 h, dose level Low): 4.2 meq/L | LDH (10 mg/kg, 6 h, dose level Low): 139.2 IU/L | PL (10 mg/kg, 6 h, dose level Low): 137.6 mg/dL | RALB (10 mg/kg, 6 h, dose level Low): 2.5 g/dL | TBIL (10 mg/kg, 6 h, dose level Low): 0.064 mg/dL | TC (10 mg/kg, 6 h, dose level Low): 74.8 mg/dL | TP (10 mg/kg, 6 h, dose level Low): 5.3 g/dL | gamma-GTP (10 mg/kg, 6 h, dose level Low): 1 IU/L | TERMINAL_BW (10 mg/kg, 9 h, dose level Low): 198.9 g | APTT (10 mg/kg, 9 h, dose level Low): 16.4 s | Bas (10 mg/kg, 9 h, dose level Low): 0.2% | Eos (10 mg/kg, 9 h, dose level Low): 1% | Fbg (10 mg/kg, 9 h, dose level Low): 294.4 mg/dL | Ht (10 mg/kg, 9 h, dose level Low): 42.3% | Lym (10 mg/kg, 9 h, dose level Low): 75.6% | MCHC (10 mg/kg, 9 h, dose level Low): 32.5% | MCV (10 mg/kg, 9 h, dose level Low): 64.4 fL | Mono (10 mg/kg, 9 h, dose level Low): 2.2% | PT (10 mg/kg, 9 h, dose level Low): 15.9 s | Plat (10 mg/kg, 9 h, dose level Low): 114.9 x10_4/uL | RBC (10 mg/kg, 9 h, dose level Low): 658 x10_4/ul | Ret (10 mg/kg, 9 h, dose level Low): 7.7% | WBC (10 mg/kg, 9 h, dose level Low): 71.4 x10_2/uL | KIDNEY_L (10 mg/kg, 9 h, dose level Low): 0.9 g | KIDNEY_R (10 mg/kg, 9 h, dose level Low): 0.9 g | KIDNEY_TOTAL (10 mg/kg, 9 h, dose level Low): 1.8 g | LIVER (10 mg/kg, 9 h, dose level Low): 8.2 g | ALP (10 mg/kg, 9 h, dose level Low): 1463.6 IU/L | ALT (10 mg/kg, 9 h, dose level Low): 37.6 IU/L | AST (10 mg/kg, 9 h, dose level Low): 66.2 IU/L | BUN (10 mg/kg, 9 h, dose level Low): 7.4 mg/dL | CRE (10 mg/kg, 9 h, dose level Low): 0.1 mg/dL | DBIL (10 mg/kg, 9 h, dose level Low): 0.01 mg/dL | GLC (10 mg/kg, 9 h, dose level Low): 181 mg/dL | IP (10 mg/kg, 9 h, dose level Low): 9.9 mg/dL | K (10 mg/kg, 9 h, dose level Low): 4.1 meq/L | LDH (10 mg/kg, 9 h, dose level Low): 67.6 IU/L | PL (10 mg/kg, 9 h, dose level Low): 137.4 mg/dL | RALB (10 mg/kg, 9 h, dose level Low): 2.6 g/dL | TBIL (10 mg/kg, 9 h, dose level Low): 0.066 mg/dL | TC (10 mg/kg, 9 h, dose level Low): 78.4 mg/dL | TP (10 mg/kg, 9 h, dose level Low): 5.5 g/dL | gamma-GTP (10 mg/kg, 9 h, dose level Low): 1.2 IU/L | TERMINAL_BW (10 mg/kg, 24 h, dose level Low): 217.3 g | APTT (10 mg/kg, 24 h, dose level Low): 16.2 s | Bas (10 mg/kg, 24 h, dose level Low): 0% | Eos (10 mg/kg, 24 h, dose level Low): 0.4% | Fbg (10 mg/kg, 24 h, dose level Low): 254 mg/dL | Ht (10 mg/kg, 24 h, dose level Low): 40.6% | Lym (10 mg/kg, 24 h, dose level Low): 81% | MCHC (10 mg/kg, 24 h, dose level Low): 32.3% | MCV (10 mg/kg, 24 h, dose level Low): 65.1 fL | Mono (10 mg/kg, 24 h, dose level Low): 2.4% | PT (10 mg/kg, 24 h, dose level Low): 16.2 s | Plat (10 mg/kg, 24 h, dose level Low): 104.4 x10_4/uL | RBC (10 mg/kg, 24 h, dose level Low): 625.4 x10_4/ul | Ret (10 mg/kg, 24 h, dose level Low): 7.4% | WBC (10 mg/kg, 24 h, dose level Low): 76.3 x10_2/uL | KIDNEY_L (10 mg/kg, 24 h, dose level Low): 0.9 g | KIDNEY_R (10 mg/kg, 24 h, dose level Low): 0.9 g | KIDNEY_TOTAL (10 mg/kg, 24 h, dose level Low): 1.8 g | LIVER (10 mg/kg, 24 h, dose level Low): 9.7 g | ALP (10 mg/kg, 24 h, dose level Low): 1443 IU/L | ALT (10 mg/kg, 24 h, dose level Low): 48.6 IU/L | AST (10 mg/kg, 24 h, dose level Low): 80.8 IU/L | BUN (10 mg/kg, 24 h, dose level Low): 15.6 mg/dL | CRE (10 mg/kg, 24 h, dose level Low): 0.2 mg/dL | GLC (10 mg/kg, 24 h, dose level Low): 187.2 mg/dL | IP (10 mg/kg, 24 h, dose level Low): 7.6 mg/dL | K (10 mg/kg, 24 h, dose level Low): 4 meq/L | LDH (10 mg/kg, 24 h, dose level Low): 73.2 IU/L | RALB (10 mg/kg, 24 h, dose level Low): 2.5 g/dL | TBIL (10 mg/kg, 24 h, dose level Low): 0.058 mg/dL | TC (10 mg/kg, 24 h, dose level Low): 78 mg/dL
